Values after ≈ are worked out from the molar mass of the structure shown. Like-named read-outs stand apart in the source and are kept apart here.
System: Neisseria gonorrhoeae
Assay: MIC, microbroth dilution, G77L medium
Format: cell-based

O=C(Nc1nnc(-c2ccc(F)cc2)o1)N1CCc2ccccc2C1 [MBX-4132]
MIC (Neisseria gonorrhoeae ATCC 49226, source data, individual replicates): 0.08459 µg/mL (≈ 0.25 µM)
MIC (Neisseria gonorrhoeae, ATCC49226, Neisseria gonorrhoeae ATCC 49226, source data, individual replicates): 0.169 µg/mL (≈ 0.5 µM)
MIC (Neisseria gonorrhoeae, ATCC49226, read-out: MIC GEOMEAN, strain ATCC 49226, geomean of replicates): 0.134 µg/mL (≈ 0.396 µM)
MIC (Neisseria gonorrhoeae, ATCC49226, strain ATCC 49226, replicates 1-3): 0.169 µg/mL (≈ 0.499 µM)
MIC (Neisseria gonorrhoeae, ATCC49226, strain ATCC 49226, type strain): 0.13 µg/mL (≈ 0.384 µM)
MIC (Neisseria gonorrhoeae, ATCC49226, strain MMX ATCC 49226, broth dilution by Micromyx): 0.27 µg/mL (≈ 0.798 µM)
MIC (Neisseria gonorrhoeae, ATCC700719, read-out: MIC GEOMEAN, strain ATCC 700719, geomean of replicates): 0.213 µg/mL (≈ 0.63 µM)
MIC (Neisseria gonorrhoeae, ATCC700719, strain ATCC 700719, SPT): 0.21 µg/mL (≈ 0.621 µM)
MIC (Neisseria gonorrhoeae, ATCC700719, strain ATCC 700719, replicates 1-3): 0.169 µg/mL (≈ 0.499 µM)
MIC (Neisseria gonorrhoeae, ATCC700825, read-out: MIC GEOMEAN, strain ATCC 700825, geomean of replicates): 0.042 µg/mL (≈ 0.124 µM)
MIC (Neisseria gonorrhoeae, ATCC700825, strain ATCC 700825, STR): 0.04 µg/mL (≈ 0.118 µM)
MIC (Neisseria gonorrhoeae, ATCC700825, strain ATCC 700825, replicates 1-3): 0.042 µg/mL (≈ 0.124 µM)
MIC (Neisseria gonorrhoeae, BAA1846, read-out: MIC GEOMEAN, strain BAA-1846, geomean of replicates): 0.042 µg/mL (≈ 0.124 µM)
MIC (Neisseria gonorrhoeae, BAA1846, strain BAA-1846, TET): 0.04 µg/mL (≈ 0.118 µM)
MIC (Neisseria gonorrhoeae, BAA1846, strain BAA-1846, replicates 1-3): 0.042 µg/mL (≈ 0.124 µM)
MIC90 (Neisseria gonorrhoeae, read-out: MIC90 (n)): 0.53 µg/mL (≈ 1.57 µM)
MIC (Neisseria gonorrhoeae, read-out: MIC GEOMEAN, strain CDC-0165, geomean of replicates): 0.677 µg/mL (≈ 2 µM)
MIC (Neisseria gonorrhoeae, read-out: MIC GEOMEAN, strain CDC-0166, geomean of replicates): 0.169 µg/mL (≈ 0.499 µM)
MIC (Neisseria gonorrhoeae, read-out: MIC GEOMEAN, strain CDC-0167, geomean of replicates): 0.134 µg/mL (≈ 0.396 µM)
MIC (Neisseria gonorrhoeae, read-out: MIC GEOMEAN, strain CDC-0169, geomean of replicates): 0.169 µg/mL (≈ 0.499 µM)
MIC (Neisseria gonorrhoeae, read-out: MIC GEOMEAN, strain CDC-0170, geomean of replicates): 0.169 µg/mL (≈ 0.499 µM)
MIC (Neisseria gonorrhoeae, read-out: MIC GEOMEAN, strain CDC-0171, geomean of replicates): 0.169 µg/mL (≈ 0.499 µM)
MIC (Neisseria gonorrhoeae, read-out: MIC GEOMEAN, strain CDC-0172, geomean of replicates): 0.169 µg/mL (≈ 0.499 µM)
MIC (Neisseria gonorrhoeae, read-out: MIC GEOMEAN, strain CDC-0173, geomean of replicates): 0.169 µg/mL (≈ 0.499 µM)
MIC (Neisseria gonorrhoeae, read-out: MIC GEOMEAN, strain CDC-0174, geomean of replicates): 0.169 µg/mL (≈ 0.499 µM)
MIC (Neisseria gonorrhoeae, read-out: MIC GEOMEAN, strain CDC-0175, geomean of replicates): 0.085 µg/mL (≈ 0.251 µM)
MIC (Neisseria gonorrhoeae, read-out: MIC GEOMEAN, strain CDC-0176, geomean of replicates): 0.338 µg/mL (≈ 0.999 µM)
MIC (Neisseria gonorrhoeae, read-out: MIC GEOMEAN, strain CDC-0177, geomean of replicates): 0.169 µg/mL (≈ 0.499 µM)
MIC (Neisseria gonorrhoeae, read-out: MIC GEOMEAN, strain CDC-0178, geomean of replicates): 0.338 µg/mL (≈ 0.999 µM)
MIC (Neisseria gonorrhoeae, read-out: MIC GEOMEAN, strain CDC-0179, geomean of replicates): 0.085 µg/mL (≈ 0.251 µM)
MIC (Neisseria gonorrhoeae, read-out: MIC GEOMEAN, strain CDC-0180, geomean of replicates): 0.169 µg/mL (≈ 0.499 µM)
MIC (Neisseria gonorrhoeae, read-out: MIC GEOMEAN, strain CDC-0181, geomean of replicates): 0.169 µg/mL (≈ 0.499 µM)
MIC (Neisseria gonorrhoeae, read-out: MIC GEOMEAN, strain CDC-0182, geomean of replicates): 0.169 µg/mL (≈ 0.499 µM)
MIC (Neisseria gonorrhoeae, read-out: MIC GEOMEAN, strain CDC-0183, geomean of replicates): 0.338 µg/mL (≈ 0.999 µM)
MIC (Neisseria gonorrhoeae, read-out: MIC GEOMEAN, strain CDC-0184, geomean of replicates): 0.169 µg/mL (≈ 0.499 µM)
MIC (Neisseria gonorrhoeae, read-out: MIC GEOMEAN, strain CDC-0185, geomean of replicates): 0.269 µg/mL (≈ 0.795 µM)
MIC (Neisseria gonorrhoeae, read-out: MIC GEOMEAN, strain CDC-0186, geomean of replicates): 0.169 µg/mL (≈ 0.499 µM)
MIC (Neisseria gonorrhoeae, read-out: MIC GEOMEAN, strain CDC-0187, geomean of replicates): 0.338 µg/mL (≈ 0.999 µM)
MIC (Neisseria gonorrhoeae, read-out: MIC GEOMEAN, strain CDC-0188, geomean of replicates): 0.169 µg/mL (≈ 0.499 µM)
MIC (Neisseria gonorrhoeae, read-out: MIC GEOMEAN, strain CDC-0189, geomean of replicates): 0.134 µg/mL (≈ 0.396 µM)
MIC (Neisseria gonorrhoeae, read-out: MIC GEOMEAN, strain CDC-0190, geomean of replicates): 0.169 µg/mL (≈ 0.499 µM)
MIC (Neisseria gonorrhoeae, read-out: MIC GEOMEAN, strain HO41, geomean of replicates): 0.169 µg/mL (≈ 0.499 µM)
MIC (Neisseria gonorrhoeae, read-out: MIC GEOMEAN, strain WHO F, geomean of replicates): 0.066 µg/mL (≈ 0.195 µM)
MIC (Neisseria gonorrhoeae, read-out: MIC GEOMEAN, strain WHO G, geomean of replicates): 0.132 µg/mL (≈ 0.39 µM)
MIC (Neisseria gonorrhoeae, read-out: MIC GEOMEAN, strain WHO K, geomean of replicates): 0.264 µg/mL (≈ 0.78 µM)
MIC (Neisseria gonorrhoeae, read-out: MIC GEOMEAN, strain WHO L, geomean of replicates): 0.264 µg/mL (≈ 0.78 µM)
MIC (Neisseria gonorrhoeae, read-out: MIC GEOMEAN, strain WHO M, geomean of replicates): 0.132 µg/mL (≈ 0.39 µM)
MIC (Neisseria gonorrhoeae, read-out: MIC GEOMEAN, strain WHO N, geomean of replicates): 0.264 µg/mL (≈ 0.78 µM)
MIC (Neisseria gonorrhoeae, read-out: MIC GEOMEAN, strain WHO O, geomean of replicates): 0.132 µg/mL (≈ 0.39 µM)
MIC (Neisseria gonorrhoeae, read-out: MIC GEOMEAN, strain WHO P, geomean of replicates): 0.333 µg/mL (≈ 0.984 µM)
MIC (Neisseria gonorrhoeae, read-out: MIC GEOMEAN, strain WHO U, geomean of replicates): 0.132 µg/mL (≈ 0.39 µM)
MIC (Neisseria gonorrhoeae, read-out: MIC GEOMEAN, strain WHO V, geomean of replicates): 0.264 µg/mL (≈ 0.78 µM)
MIC (Neisseria gonorrhoeae, read-out: MIC GEOMEAN, strain WHO W, geomean of replicates): 0.132 µg/mL (≈ 0.39 µM)
MIC (Neisseria gonorrhoeae, read-out: MIC GEOMEAN, strain WHO X, geomean of replicates): 0.21 µg/mL (≈ 0.621 µM)
MIC (Neisseria gonorrhoeae, read-out: MIC GEOMEAN, strain WHO Y, geomean of replicates): 0.21 µg/mL (≈ 0.621 µM)
MIC (Neisseria gonorrhoeae, read-out: MIC GEOMEAN, strain WHO Z, geomean of replicates): 0.264 µg/mL (≈ 0.78 µM)
MIC (Neisseria gonorrhoeae, read-out: N. gonorrhoeae H041 MIC, strain H041, Fig. 1B): 0.18 µg/mL (≈ 0.532 µM)
MIC90 (Neisseria gonorrhoeae, read-out: N. gonorrhoeae MIC90): 0.34 µg/mL (≈ 1 µM)
MIC (Neisseria gonorrhoeae, strain CDC-0165, CIP, PEN, TET): 0.68 µg/mL (≈ 2.01 µM)
MIC (Neisseria gonorrhoeae, strain CDC-0165, replicates 1-3): 0.677 µg/mL (≈ 2 µM)
MIC (Neisseria gonorrhoeae, strain CDC-0166, CIP, PEN, TET): 0.17 µg/mL (≈ 0.502 µM)
MIC (Neisseria gonorrhoeae, strain CDC-0166, replicates 1-3): 0.169 µg/mL (≈ 0.499 µM)
MIC (Neisseria gonorrhoeae, strain CDC-0167): 0.13 µg/mL (≈ 0.384 µM)
MIC (Neisseria gonorrhoeae, strain CDC-0167, replicates 1-3): 0.169 µg/mL (≈ 0.499 µM)
MIC (Neisseria gonorrhoeae, strain CDC-0169, CIP, PEN, TET): 0.17 µg/mL (≈ 0.502 µM)
MIC (Neisseria gonorrhoeae, strain CDC-0169, replicates 1-3): 0.169 µg/mL (≈ 0.499 µM)
MIC (Neisseria gonorrhoeae, strain CDC-0170, CIP, PEN, TET): 0.17 µg/mL (≈ 0.502 µM)
MIC (Neisseria gonorrhoeae, strain CDC-0170, replicates 1-3): 0.169 µg/mL (≈ 0.499 µM)
MIC (Neisseria gonorrhoeae, strain CDC-0171, CIP, PEN, TET): 0.17 µg/mL (≈ 0.502 µM)
MIC (Neisseria gonorrhoeae, strain CDC-0171, replicates 1-3): 0.169 µg/mL (≈ 0.499 µM)
MIC (Neisseria gonorrhoeae, strain CDC-0172, CIP, PEN, TET): 0.17 µg/mL (≈ 0.502 µM)
MIC (Neisseria gonorrhoeae, strain CDC-0172, replicates 1-3): 0.169 µg/mL (≈ 0.499 µM)
MIC (Neisseria gonorrhoeae, strain CDC-0173, CIP, PEN, TET): 0.17 µg/mL (≈ 0.502 µM)
MIC (Neisseria gonorrhoeae, strain CDC-0173, replicates 1-3): 0.169 µg/mL (≈ 0.499 µM)
MIC (Neisseria gonorrhoeae, strain CDC-0174, CIP, PEN, TET): 0.17 µg/mL (≈ 0.502 µM)
MIC (Neisseria gonorrhoeae, strain CDC-0174, replicates 1-3): 0.169 µg/mL (≈ 0.499 µM)
MIC (Neisseria gonorrhoeae, strain CDC-0175, CIP, PEN, TET): 0.08 µg/mL (≈ 0.236 µM)
MIC (Neisseria gonorrhoeae, strain CDC-0175, replicates 1-3): 0.085 µg/mL (≈ 0.251 µM)
MIC (Neisseria gonorrhoeae, strain CDC-0176): 0.34 µg/mL (≈ 1 µM)
MIC (Neisseria gonorrhoeae, strain CDC-0176, replicates 1-3): 0.338 µg/mL (≈ 0.999 µM)
MIC (Neisseria gonorrhoeae, strain CDC-0177, CIP, PEN, TET): 0.17 µg/mL (≈ 0.502 µM)
MIC (Neisseria gonorrhoeae, strain CDC-0177, replicates 1-3): 0.169 µg/mL (≈ 0.499 µM)
MIC (Neisseria gonorrhoeae, strain CDC-0178, TET): 0.34 µg/mL (≈ 1 µM)
MIC (Neisseria gonorrhoeae, strain CDC-0178, replicates 1-3): 0.338 µg/mL (≈ 0.999 µM)
MIC (Neisseria gonorrhoeae, strain CDC-0179, CIP, PEN, TET): 0.08 µg/mL (≈ 0.236 µM)
MIC (Neisseria gonorrhoeae, strain CDC-0179, replicates 1-3): 0.085 µg/mL (≈ 0.251 µM)
MIC (Neisseria gonorrhoeae, strain CDC-0180): 0.17 µg/mL (≈ 0.502 µM)
MIC (Neisseria gonorrhoeae, strain CDC-0180, replicates 1-3): 0.169 µg/mL (≈ 0.499 µM)
MIC (Neisseria gonorrhoeae, strain CDC-0181, CIP, PEN, TET): 0.17 µg/mL (≈ 0.502 µM)
MIC (Neisseria gonorrhoeae, strain CDC-0181, replicates 1-3): 0.169 µg/mL (≈ 0.499 µM)
MIC (Neisseria gonorrhoeae, strain CDC-0182, TET): 0.17 µg/mL (≈ 0.502 µM)
MIC (Neisseria gonorrhoeae, strain CDC-0182, replicates 1-3): 0.169 µg/mL (≈ 0.499 µM)
MIC (Neisseria gonorrhoeae, strain CDC-0183, CIP, PEN, TET): 0.34 µg/mL (≈ 1 µM)
MIC (Neisseria gonorrhoeae, strain CDC-0183, replicates 1-3): 0.338 µg/mL (≈ 0.999 µM)
MIC (Neisseria gonorrhoeae, strain CDC-0184, CIP, PEN, TET): 0.17 µg/mL (≈ 0.502 µM)
MIC (Neisseria gonorrhoeae, strain CDC-0184, replicates 1-3): 0.169 µg/mL (≈ 0.499 µM)
MIC (Neisseria gonorrhoeae, strain CDC-0185, CIP, PEN, TET): 0.27 µg/mL (≈ 0.798 µM)
MIC (Neisseria gonorrhoeae, strain CDC-0185, replicates 1-3): 0.338 µg/mL (≈ 0.999 µM)
MIC (Neisseria gonorrhoeae, strain CDC-0186, CIP, PEN, TET): 0.17 µg/mL (≈ 0.502 µM)
MIC (Neisseria gonorrhoeae, strain CDC-0186, replicates 1-3): 0.169 µg/mL (≈ 0.499 µM)
MIC (Neisseria gonorrhoeae, strain CDC-0187, CIP, PEN, TET): 0.34 µg/mL (≈ 1 µM)
MIC (Neisseria gonorrhoeae, strain CDC-0187, replicates 1-3): 0.338 µg/mL (≈ 0.999 µM)
MIC (Neisseria gonorrhoeae, strain CDC-0188, CIP, PEN): 0.17 µg/mL (≈ 0.502 µM)
MIC (Neisseria gonorrhoeae, strain CDC-0188, replicates 1-3): 0.169 µg/mL (≈ 0.499 µM)
MIC (Neisseria gonorrhoeae, strain CDC-0189, CIP, PEN, TET): 0.13 µg/mL (≈ 0.384 µM)
MIC (Neisseria gonorrhoeae, strain CDC-0189, replicates 1-3): 0.169 µg/mL (≈ 0.499 µM)
MIC (Neisseria gonorrhoeae, strain CDC-0190, CIP, PEN, TET): 0.17 µg/mL (≈ 0.502 µM)

From PMC7979765, “trans-Translation inhibitors bind to a novel site on the ribosome and clear Neisseria gonorrhoeae in vivo” (Nature Communications, 2021)
